PMC12281424, “A Rac-specific competitive inhibitor of guanine nucleotide binding reduces metastasis in triple-negative breast cancer” (Cell Reports Medicine, 2025)

Experiments:
White blood cell formula = type: in vivo, mouse
Text: Data S6. Formule white blood cell (% of leukocytes) in control and A41-treated mice (25
Control (n=5) A41 (n=5) p value

EphA8(h) = EphA8(h) (Homo sapiens, UniProt P29322); test: Kinase Profiler; type: biochemical
Method: (§1) Blood cell counts, kinase profiler, safety screen, bacterial cytotoxicity, Ames, micronucleus assays were performed by the company Eurofins (France). The kinase profiler was performed by the company Eurofins (Discovery, Panlab and Cerep).

STK39(h) = STK39(h) (Homo sapiens, UniProt Q9UEW8); test: Kinase Profiler; type: biochemical
Method: (§2) The kinase profiler was performed by the company Eurofins (Discovery, Panlab and Cerep).

Flt4(h) = Flt4(h) (Homo sapiens, UniProt P35916); test: Kinase Profiler; type: biochemical
Method: as §2

CHK1(h) = CHK1(h) (Homo sapiens, UniProt O14757); test: Kinase Profiler; type: biochemical
Method: as §2

EphA3(h) = EphA3(h) (Homo sapiens, UniProt P29320); test: Kinase Profiler; type: biochemical
Method: as §1

LKB1(h) = LKB1(h) (Homo sapiens, UniProt Q15831); test: Kinase Profiler; type: biochemical
Method: as §2

Histamine H2 = Histamine H2 (Homo sapiens, UniProt P25021); test: Safety screen; type: binding
Method: as §1

Cyclooxygenase COX-1 = Cyclooxygenase COX-1 (Homo sapiens, UniProt P23219); test: Safety screen; type: biochemical
Method: as §1

Rse(h) = Rse(h) (Homo sapiens, UniProt Q06418); test: Kinase Profiler; type: biochemical
Method: as §2

Met(Y1248C)(h) = Met(Y1248C)(h) (Homo sapiens, UniProt P08581, Y1230C); test: Kinase Profiler; type: biochemical
Method: as §2

PKCζ(h) = PKCζ(h) (Homo sapiens, UniProt Q05513); test: Kinase Profiler; type: biochemical
Method: as §2

TSSK2(h) = TSSK2(h) (Homo sapiens, UniProt Q96PF2); test: Kinase Profiler; type: biochemical
Method: as §2

CDK17/cyclinY(h) = CDK17/cyclinY(h) (Homo sapiens, UniProt Q00537); test: Kinase Profiler; type: biochemical
Method: as §1

Tec(h) activated = Tec(h) activated (Homo sapiens, UniProt P42680); test: Kinase Profiler; type: biochemical
Method: as §1

ARK5(h) = ARK5(h) (Homo sapiens, UniProt O60285); test: Kinase Profiler; type: biochemical
Method: as §1

MOK(h) = MOK(h) (Homo sapiens, UniProt Q9UQ07); test: Kinase Profiler; type: biochemical
Method: as §2

ROCK-I(h) = ROCK-I(h) (Homo sapiens, UniProt Q13464); test: Kinase Profiler; type: biochemical
Sequence of ROCK-I(h) (Q13464 whole entry): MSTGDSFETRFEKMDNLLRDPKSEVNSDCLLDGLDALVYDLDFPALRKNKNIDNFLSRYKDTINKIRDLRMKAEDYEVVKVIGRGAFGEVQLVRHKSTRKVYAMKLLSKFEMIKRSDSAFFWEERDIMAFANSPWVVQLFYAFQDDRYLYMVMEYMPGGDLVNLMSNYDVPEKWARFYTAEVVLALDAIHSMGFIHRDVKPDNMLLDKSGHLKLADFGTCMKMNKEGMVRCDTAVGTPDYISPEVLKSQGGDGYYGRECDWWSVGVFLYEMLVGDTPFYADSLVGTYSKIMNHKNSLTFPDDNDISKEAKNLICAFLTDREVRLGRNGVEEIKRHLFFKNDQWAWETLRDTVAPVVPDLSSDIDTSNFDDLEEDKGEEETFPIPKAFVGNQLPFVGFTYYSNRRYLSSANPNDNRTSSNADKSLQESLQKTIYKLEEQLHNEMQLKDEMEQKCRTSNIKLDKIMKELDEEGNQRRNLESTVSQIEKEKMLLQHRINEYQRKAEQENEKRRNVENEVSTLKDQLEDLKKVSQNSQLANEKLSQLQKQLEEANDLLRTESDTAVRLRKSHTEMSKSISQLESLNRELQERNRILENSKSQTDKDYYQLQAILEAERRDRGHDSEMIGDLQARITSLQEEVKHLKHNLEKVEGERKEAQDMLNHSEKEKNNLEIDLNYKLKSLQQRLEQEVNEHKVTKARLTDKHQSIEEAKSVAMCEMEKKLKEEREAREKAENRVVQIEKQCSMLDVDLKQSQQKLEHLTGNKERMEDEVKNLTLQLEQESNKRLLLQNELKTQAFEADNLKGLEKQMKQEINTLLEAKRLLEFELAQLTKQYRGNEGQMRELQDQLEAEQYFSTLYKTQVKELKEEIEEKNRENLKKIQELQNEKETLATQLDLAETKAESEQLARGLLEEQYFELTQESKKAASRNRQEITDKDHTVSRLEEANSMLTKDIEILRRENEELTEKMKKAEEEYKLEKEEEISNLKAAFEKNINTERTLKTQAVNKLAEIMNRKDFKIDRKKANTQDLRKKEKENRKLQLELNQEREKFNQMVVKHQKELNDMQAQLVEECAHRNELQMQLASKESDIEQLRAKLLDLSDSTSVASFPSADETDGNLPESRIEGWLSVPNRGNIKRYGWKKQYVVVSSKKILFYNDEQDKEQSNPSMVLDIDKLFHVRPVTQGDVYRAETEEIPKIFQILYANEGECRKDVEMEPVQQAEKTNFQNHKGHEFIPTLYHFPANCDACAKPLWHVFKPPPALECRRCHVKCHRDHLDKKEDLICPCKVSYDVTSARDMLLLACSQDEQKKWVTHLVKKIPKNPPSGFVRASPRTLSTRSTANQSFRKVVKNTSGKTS
Method: as §1

Sequence of EphA3(h) (P29320 21-983): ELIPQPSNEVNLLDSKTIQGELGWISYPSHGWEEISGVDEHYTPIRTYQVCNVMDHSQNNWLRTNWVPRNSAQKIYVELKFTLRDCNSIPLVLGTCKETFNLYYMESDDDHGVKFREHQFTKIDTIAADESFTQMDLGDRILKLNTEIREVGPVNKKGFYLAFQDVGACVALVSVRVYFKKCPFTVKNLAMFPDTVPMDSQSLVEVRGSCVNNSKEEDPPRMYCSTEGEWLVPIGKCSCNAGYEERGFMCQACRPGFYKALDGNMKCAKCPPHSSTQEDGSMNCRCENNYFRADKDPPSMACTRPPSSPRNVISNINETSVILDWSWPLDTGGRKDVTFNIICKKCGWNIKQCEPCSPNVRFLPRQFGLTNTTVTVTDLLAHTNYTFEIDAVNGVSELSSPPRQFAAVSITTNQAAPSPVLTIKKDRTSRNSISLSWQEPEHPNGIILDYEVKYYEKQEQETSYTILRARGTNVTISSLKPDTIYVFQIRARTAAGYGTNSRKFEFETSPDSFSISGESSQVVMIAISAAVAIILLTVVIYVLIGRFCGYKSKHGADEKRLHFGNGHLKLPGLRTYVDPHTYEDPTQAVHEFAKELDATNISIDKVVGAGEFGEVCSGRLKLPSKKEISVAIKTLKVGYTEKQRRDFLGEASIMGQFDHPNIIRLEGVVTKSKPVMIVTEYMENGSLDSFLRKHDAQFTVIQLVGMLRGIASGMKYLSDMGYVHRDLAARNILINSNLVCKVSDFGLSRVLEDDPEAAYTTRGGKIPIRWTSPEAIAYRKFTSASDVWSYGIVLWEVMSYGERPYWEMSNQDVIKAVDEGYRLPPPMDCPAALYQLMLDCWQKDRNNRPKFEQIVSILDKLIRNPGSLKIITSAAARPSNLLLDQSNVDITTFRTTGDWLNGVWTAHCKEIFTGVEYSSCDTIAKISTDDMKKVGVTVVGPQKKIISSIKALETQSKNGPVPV
Sequence of Histamine H2 (P25021 whole entry): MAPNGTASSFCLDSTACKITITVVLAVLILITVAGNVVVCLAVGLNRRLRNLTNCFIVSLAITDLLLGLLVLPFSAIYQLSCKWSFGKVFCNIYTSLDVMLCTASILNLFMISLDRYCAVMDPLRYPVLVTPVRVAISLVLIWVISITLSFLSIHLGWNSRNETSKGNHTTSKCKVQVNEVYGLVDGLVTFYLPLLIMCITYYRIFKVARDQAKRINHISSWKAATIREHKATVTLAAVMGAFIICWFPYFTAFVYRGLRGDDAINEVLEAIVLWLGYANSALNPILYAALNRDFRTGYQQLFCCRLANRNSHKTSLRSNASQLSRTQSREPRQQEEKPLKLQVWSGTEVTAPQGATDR
Sequence of LKB1(h) (Q15831 whole entry): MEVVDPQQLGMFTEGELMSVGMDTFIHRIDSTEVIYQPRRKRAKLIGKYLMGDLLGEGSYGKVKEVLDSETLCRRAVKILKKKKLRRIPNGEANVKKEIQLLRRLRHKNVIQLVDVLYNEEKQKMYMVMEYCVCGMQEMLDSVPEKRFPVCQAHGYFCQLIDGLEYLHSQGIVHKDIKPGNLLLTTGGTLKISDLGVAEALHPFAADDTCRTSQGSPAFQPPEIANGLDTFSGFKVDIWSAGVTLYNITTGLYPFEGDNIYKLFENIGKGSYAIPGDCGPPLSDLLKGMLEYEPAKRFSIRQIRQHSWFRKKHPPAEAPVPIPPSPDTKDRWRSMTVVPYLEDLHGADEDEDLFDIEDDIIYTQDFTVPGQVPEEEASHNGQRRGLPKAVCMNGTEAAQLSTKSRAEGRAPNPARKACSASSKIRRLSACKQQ
Sequence of LKB1(h) (Q7RTN6 whole entry partner): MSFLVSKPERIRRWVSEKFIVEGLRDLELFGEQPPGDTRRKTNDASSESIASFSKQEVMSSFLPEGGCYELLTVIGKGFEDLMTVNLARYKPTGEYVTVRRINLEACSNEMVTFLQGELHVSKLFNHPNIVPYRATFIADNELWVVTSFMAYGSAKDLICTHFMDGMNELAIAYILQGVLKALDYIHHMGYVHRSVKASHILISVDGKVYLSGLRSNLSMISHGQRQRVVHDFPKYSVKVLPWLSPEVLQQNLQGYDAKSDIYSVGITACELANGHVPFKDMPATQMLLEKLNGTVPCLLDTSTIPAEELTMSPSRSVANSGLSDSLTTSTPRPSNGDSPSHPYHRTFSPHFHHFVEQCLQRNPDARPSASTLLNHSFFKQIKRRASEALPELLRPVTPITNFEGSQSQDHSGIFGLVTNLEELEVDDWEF
Sequence of LKB1(h) (Q9Y376 whole entry partner): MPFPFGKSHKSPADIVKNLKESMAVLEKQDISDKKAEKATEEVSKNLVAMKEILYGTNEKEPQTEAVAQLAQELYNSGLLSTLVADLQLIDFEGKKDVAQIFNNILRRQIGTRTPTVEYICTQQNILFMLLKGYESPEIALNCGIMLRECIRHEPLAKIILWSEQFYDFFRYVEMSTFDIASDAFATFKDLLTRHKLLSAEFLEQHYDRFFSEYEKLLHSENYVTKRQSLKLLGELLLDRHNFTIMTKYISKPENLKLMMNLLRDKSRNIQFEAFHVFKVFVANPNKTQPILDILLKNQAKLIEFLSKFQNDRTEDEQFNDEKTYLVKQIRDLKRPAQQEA
Sequence of EphA8(h) (P29322 28-1005): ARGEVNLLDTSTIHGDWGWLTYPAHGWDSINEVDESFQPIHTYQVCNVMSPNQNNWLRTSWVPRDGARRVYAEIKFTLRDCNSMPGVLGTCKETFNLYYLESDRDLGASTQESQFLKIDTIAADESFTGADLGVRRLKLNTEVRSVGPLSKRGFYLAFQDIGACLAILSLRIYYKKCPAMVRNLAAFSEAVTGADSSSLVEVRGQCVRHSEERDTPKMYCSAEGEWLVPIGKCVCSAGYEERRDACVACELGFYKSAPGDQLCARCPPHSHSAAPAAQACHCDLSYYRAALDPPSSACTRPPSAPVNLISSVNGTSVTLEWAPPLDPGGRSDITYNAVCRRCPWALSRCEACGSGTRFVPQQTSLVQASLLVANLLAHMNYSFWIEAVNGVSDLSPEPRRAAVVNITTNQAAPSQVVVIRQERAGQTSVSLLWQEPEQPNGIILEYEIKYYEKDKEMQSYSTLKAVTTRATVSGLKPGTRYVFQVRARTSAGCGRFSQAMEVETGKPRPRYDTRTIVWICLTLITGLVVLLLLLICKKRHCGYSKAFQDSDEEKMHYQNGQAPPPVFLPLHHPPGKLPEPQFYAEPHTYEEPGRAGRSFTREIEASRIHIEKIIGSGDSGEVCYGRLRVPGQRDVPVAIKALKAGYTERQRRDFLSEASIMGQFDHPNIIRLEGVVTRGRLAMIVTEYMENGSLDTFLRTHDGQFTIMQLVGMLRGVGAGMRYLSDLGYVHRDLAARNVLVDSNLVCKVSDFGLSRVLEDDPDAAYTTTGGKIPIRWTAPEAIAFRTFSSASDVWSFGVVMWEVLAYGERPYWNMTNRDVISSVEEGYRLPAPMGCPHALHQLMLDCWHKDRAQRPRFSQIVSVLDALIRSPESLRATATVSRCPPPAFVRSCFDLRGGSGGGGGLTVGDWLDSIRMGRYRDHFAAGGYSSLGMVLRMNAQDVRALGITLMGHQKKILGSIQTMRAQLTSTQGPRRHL

## COc1ccc(OC)c(NS(=O)(=O)c2ccc(NC(=O)CCSc3ccc(C)cc3)cc2)c1 [Compound A41]
White blood cell formula; 25 mg/kg/d, n=5
  B cells, Mean (SD): 11.62 (1.58) % of leukocytes
  Macrophages, Mean (SD): 2.46 (2.34) % of leukocytes
  Monocytes, Mean (SD): 0.86 (0.57) % of leukocytes
  NK cells, Mean (SD): 0.40 (0.22) % of leukocytes
  Neutrophiles, Mean (SD): 4.19 (6.24) % of leukocytes
  T cells, Mean (SD): 52.20 (2.11) % of leukocytes
White blood cell formula; chronic A41 treatment, immunocompetent mice
  white cell blood counts: not accompanied by changes in white cell blood counts
EphA8(h)
  Activity(%): 112%
STK39(h)
  Activity(%): 91%
Flt4(h)
  Activity(%): 92%
CHK1(h)
  Activity(%): 120%
EphA3(h)
  Activity(%): 139%
LKB1(h)
  Activity(%): 107%
Histamine H2
  % inh.: -14%
Cyclooxygenase COX-1
  % inh.: -11%
Rse(h)
  Activity(%): 102%
Met(Y1248C)(h)
  Activity(%): 118%
PKCζ(h)
  Activity(%): 97%
TSSK2(h)
  Activity(%): 111%
CDK17/cyclinY(h)
  Activity(%): 96%
Tec(h) activated
  Activity(%): 112%
ARK5(h)
  Activity(%): 106%
MOK(h)
  Activity(%): 90%
ROCK-I(h)
  Activity(%): 101%
